According to ChEMBL document CHEMBL1134080, “Indazolylamino quinazolines and pyridopyrimidines as inhibitors of the EGFr and C-erbB-2” (Bioorg Med Chem Lett, 2001):

Key:
[1] = target: Receptor tyrosine-protein kinase erbB-2 (Rattus norvegicus, UniProt P06494); assay: Inhibition of rat Receptor protein-tyrosine kinase erbB2
[2] = target: Epidermal growth factor receptor and ErbB2 (HER1 and HER2) (Homo sapiens) (UniProt P04626+P00533); assay: Selectivity for EGF receptor and c-erbB-2; assay type: protein assay
[3] = target: Dual specificity mitogen-activated protein kinase kinase; MEK1/2 (Homo sapiens, UniProt P36507+Q02750); assay: Inhibition of MAPK kinase (MEK); assay type: protein assay
[4] = Pharmacokinetic property (Plasma clearance) was measured in mouse; assay type: ADME, organism-based
[5] = Half-life was measured in rat; assay type: ADME, organism-based; conditions: in vivo
[6] = target: RAF proto-oncogene serine/threonine-protein kinase (Homo sapiens, UniProt P04049); assay: Inhibition of Raf kinase
Chain of RAF proto-oncogene serine/threonine-protein kinase (P04049 whole entry): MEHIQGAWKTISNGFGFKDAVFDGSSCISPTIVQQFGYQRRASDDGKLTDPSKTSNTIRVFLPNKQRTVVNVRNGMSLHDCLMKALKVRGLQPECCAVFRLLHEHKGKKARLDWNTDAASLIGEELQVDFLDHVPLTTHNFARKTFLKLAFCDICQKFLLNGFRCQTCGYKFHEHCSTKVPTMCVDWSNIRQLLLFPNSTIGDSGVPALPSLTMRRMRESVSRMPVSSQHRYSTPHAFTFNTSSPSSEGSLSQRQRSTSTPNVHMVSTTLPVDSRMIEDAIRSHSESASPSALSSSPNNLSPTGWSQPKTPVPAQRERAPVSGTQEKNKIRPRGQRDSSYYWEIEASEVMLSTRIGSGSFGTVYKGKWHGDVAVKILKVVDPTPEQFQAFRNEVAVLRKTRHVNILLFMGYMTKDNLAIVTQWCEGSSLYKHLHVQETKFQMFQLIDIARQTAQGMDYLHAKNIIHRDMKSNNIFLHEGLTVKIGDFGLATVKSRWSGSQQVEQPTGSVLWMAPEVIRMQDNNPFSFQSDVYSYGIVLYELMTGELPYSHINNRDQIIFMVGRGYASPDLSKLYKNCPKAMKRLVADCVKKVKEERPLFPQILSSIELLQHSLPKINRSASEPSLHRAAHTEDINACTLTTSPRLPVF

HB4a = assay: Inhibition of RAS overexpressing HB4a.R4.2 cell proliferation; assay type: functional, cell-based; conditions: Homo sapiens
[7] = Bioavailability in dog; assay type: ADME, organism-based, Canis lupus familiaris; conditions: in vivo
[8] = Half-life was measured in dog; assay type: ADME, organism-based, Canis lupus familiaris; conditions: in vivo
[9] = target: Cyclin-dependent kinase 1 (Homo sapiens, UniProt P06493); assay: Inhibition of Cyclin-dependent kinase 1
Chain of Cyclin-dependent kinase 1 (P06493 whole entry): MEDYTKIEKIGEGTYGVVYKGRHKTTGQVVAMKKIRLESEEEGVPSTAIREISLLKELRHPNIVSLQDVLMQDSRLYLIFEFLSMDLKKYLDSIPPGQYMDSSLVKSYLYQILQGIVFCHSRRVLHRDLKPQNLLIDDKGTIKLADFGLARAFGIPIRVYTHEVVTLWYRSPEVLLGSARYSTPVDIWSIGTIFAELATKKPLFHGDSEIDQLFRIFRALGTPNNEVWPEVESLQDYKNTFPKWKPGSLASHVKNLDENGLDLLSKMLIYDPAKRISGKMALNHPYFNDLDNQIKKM

MRC5 = assay: Inhibition of MRC5 cell proliferation; assay type: functional, cell-based; conditions: Homo sapiens
[10] = target: Proto-oncogene tyrosine-protein kinase Src (Homo sapiens, UniProt P12931); assay: Inhibition of Src kinase
Chain of Proto-oncogene tyrosine-protein kinase Src (P12931 2-536 limits assumed): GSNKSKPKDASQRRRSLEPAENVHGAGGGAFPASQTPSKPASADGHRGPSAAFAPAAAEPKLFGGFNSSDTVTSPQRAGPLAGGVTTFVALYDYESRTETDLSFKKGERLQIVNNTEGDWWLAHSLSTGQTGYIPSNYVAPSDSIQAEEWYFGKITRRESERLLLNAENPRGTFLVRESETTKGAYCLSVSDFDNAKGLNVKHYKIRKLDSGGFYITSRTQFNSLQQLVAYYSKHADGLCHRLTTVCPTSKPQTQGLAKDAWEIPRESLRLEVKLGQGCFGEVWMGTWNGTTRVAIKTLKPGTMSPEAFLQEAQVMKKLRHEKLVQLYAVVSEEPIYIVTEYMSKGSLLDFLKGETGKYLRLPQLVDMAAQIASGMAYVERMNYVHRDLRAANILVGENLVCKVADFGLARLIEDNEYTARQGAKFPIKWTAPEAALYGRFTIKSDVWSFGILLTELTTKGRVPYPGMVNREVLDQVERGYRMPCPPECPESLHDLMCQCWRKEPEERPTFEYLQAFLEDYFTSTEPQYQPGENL

[11] = Bioavailability was measured in rat; assay type: ADME, organism-based; conditions: in vivo
[12] = Pharmacokinetic property (Plasma clearance) was measured in rat; assay type: ADME, organism-based
[13] = Bioavailability was measured in mouse; assay type: ADME, organism-based; conditions: in vivo
[14] = target: Cyclin-dependent kinase 2 (Homo sapiens, UniProt P24941); assay: Inhibition of Cyclin-dependent kinase 2
[15] = Half-life was measured in mouse; assay type: ADME, organism-based; conditions: in vivo
[16] = Pharmacokinetic property (Plasma clearance) was measured in dog; assay type: ADME, organism-based, Canis lupus familiaris

Chain of Receptor tyrosine-protein kinase erbB-2 (P06494 whole entry): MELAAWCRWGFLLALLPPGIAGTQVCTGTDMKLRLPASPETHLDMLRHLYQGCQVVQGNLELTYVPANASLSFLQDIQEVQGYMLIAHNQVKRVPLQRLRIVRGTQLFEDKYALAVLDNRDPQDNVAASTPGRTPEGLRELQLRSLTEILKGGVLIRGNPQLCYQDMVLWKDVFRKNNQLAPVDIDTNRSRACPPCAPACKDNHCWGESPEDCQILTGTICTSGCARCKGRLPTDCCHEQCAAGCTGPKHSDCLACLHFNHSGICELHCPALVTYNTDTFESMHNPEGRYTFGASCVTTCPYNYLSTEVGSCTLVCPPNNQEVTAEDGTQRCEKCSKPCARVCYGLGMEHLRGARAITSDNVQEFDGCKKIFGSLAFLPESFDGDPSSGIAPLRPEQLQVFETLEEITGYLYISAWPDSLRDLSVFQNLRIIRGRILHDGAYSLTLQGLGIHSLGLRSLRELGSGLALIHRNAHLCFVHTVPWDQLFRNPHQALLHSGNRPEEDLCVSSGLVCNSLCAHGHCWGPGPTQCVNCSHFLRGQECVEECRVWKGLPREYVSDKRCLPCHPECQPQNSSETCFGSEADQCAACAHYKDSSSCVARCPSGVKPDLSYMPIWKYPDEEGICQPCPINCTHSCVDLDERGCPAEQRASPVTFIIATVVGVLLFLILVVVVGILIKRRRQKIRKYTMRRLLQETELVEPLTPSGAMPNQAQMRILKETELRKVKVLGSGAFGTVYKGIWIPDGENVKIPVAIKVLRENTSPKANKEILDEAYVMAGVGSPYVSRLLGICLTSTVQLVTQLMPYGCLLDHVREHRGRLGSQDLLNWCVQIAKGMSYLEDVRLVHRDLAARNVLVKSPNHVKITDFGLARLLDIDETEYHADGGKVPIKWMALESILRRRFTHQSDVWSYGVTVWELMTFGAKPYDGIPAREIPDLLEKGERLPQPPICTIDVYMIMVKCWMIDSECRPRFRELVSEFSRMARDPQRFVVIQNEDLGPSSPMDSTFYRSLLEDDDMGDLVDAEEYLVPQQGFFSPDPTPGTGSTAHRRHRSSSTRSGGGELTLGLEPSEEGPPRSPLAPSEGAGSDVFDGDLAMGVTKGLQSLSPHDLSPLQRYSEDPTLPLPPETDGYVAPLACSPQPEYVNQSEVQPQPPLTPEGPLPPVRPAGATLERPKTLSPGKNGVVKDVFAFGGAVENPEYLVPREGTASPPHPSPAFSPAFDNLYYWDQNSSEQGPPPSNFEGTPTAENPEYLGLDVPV

| SMILES | IC50 [1] [nM] | Selectivity [2] | further results |
| --- | --- | --- | --- |
| COc1cc2ncnc(Nc3ccc4nc(Cc5ccccc5)[nH]c4c3)c2cc1OC | 10 | 19 | – |
| c1ccc(Cc2nc3ccc(Nc4ncnc5ccccc45)cc3[nH]2)cc1 | 560 | 36 | – |
| Nc1cc2c(Nc3ccc4c(ccn4Cc4ccccc4)c3)ncnc2cn1 | 26 | – | – |
| COc1cc2ncnc(Nc3ccc4c(cnn4Cc4ccccc4)c3)c2cc1OC | 1 | > 5.6 | – |
| c1ccc(Cn2ncc3cc(Nc4ncnc5ccccc45)ccc32)cc1 | 10 | – | – |
| c1ccc(Cn2ccc3cc(Nc4ncnc5ccccc45)ccc32)cc1 | 90 | – | – |
| COc1cc2ncnc(Nc3ccc4c(ccn4Cc4ccccc4)c3)c2cc1OC | 49 | 12.5 | – |
| CN(C)c1cc2c(Nc3ccc4c(cnn4Cc4ccccc4)c3)ncnc2cn1 [GW282974X] | 18 | – | IC50 [3]: 9700 nM; clearance [4]: > 27 mL/min/kg; half-life [5]: 18 min; IC50 [6]: 49000 nM; IC50 (HB4a): 30000 nM; bioavailability [7]: 82%; half-life [8]: 44 min; IC50 [9]: > 8000 nM; IC50 (MRC5): > 50000 nM; IC50 [10]: > 50000 nM; bioavailability [11]: 24%; clearance [12]: 19 mL/min/kg; bioavailability [13]: > 23%; IC50 [14]: > 8000 nM; half-life [15]: 20 min; clearance [16]: 34 mL/min/kg |
| Nc1cc2c(Nc3ccc4c(cnn4Cc4ccccc4)c3)ncnc2cn1 | 27 | > 5.6 | – |
| c1ccc(Cn2cnc3ccc(Nc4ncnc5ccccc45)cc32)cc1 | 4400 | 27 | – |
| Nc1cc2c(Nc3ccc4[nH]c(Cc5ccccc5)nc4c3)ncnc2cn1 | 49 | 18.5 | – |
| c1ccc(Cn2cnc3cc(Nc4ncnc5ccccc45)ccc32)cc1 | 6600 | 39 | – |
| COc1cc2ncnc(Nc3ccc4nn(Cc5ccccc5)cc4c3)c2cc1OC | 290 | 8.9 | – |
